Earlier results, collected in patent US9744163B2, “Compositions of a polyorthoester and an aprotic solvent” (Heron Therapeutics, Inc., priority 2013, dated 2017).

Water Miscibility (solubility in water): (8.3 g/100 ml)
Structure (SMILES): CCOC(C)=O [ethyl acetate]
